Values quoted from earlier work as cited in PubChem BioAssay AID1259409 (Chemical Carcinogenesis Research Information System (CCRIS), 2018).

Test system: rodent chemically induced tumor inhibition, incidence and multiplicity
Experiment: CCRIS tumor inhibitor studies
Settings: Dose [Inhibitor]: 0, Route [Inhibitor]: ORAL

C[C@]12CC[C@H](O)CC1=CC[C@@H]1[C@@H]2CC[C@]2(C)C(=O)CC[C@@H]12
tumour outcome (control, treated, inhibition, significance) (Carcinogen: N-BUTYL-N-(4-HYDROXYBUTYL)NITROSAMINE, 3817-11-6, 0.6% IN DIET BEGINNING 3 D POST CARCINOGEN TREATMENT AND CONTINUING FOR 32 WK (STUDY DURATION: 36 WK), Species: RAT, Strain/Sex: F344/MALE, Target Tissue: Type of Lesion: URINARY BLADDER: PAPILLOMA, Dose [Carcinogen]: 0.05% IN DRINKING WATER FOR 4 WK, Promoter: BUTYLATED HYDROXYANISOLE, 25013-16-5): 12/15 (80%), 6/15 (40%), 50%, p<0.05
tumour outcome (control, treated, inhibition, significance) (Carcinogen: N-METHYL-N'-NITRO-N-NITROSOGUANIDINE, 70-25-7, 55 PPM IN DIET FOR 6 MO BEGINNING 3 MO POST CARCINOGEN TREATMENT (STUDY DURATION: 9 MO), Species: FISH, Strain/Sex: RAINBOW TROUT/MALE,FEMALE, Target Tissue: Type of Lesion: STOMACH: TUMOR, Dose [Carcinogen]: 35 PPM IN WATER FOR 30 MIN ONCE, Promoter: NONE USED): 38%, 34%, 11%, not significant
tumour outcome (control, treated, inhibition, significance) (Carcinogen: N-METHYL-N'-NITRO-N-NITROSOGUANIDINE, 70-25-7, 55 PPM IN DIET FOR 6 MO BEGINNING 3 MO POST CARCINOGEN TREATMENT (STUDY DURATION: 9 MO), Species: FISH, Strain/Sex: RAINBOW TROUT/MALE,FEMALE, Target Tissue: Type of Lesion: SWIN BLADDER: TUMOR, Dose [Carcinogen]: 35 PPM IN WATER FOR 30 MIN ONCE, Promoter: NONE USED): 13%, 3%, 77%, p<0.05
tumour outcome (control, treated, inhibition, significance) (Carcinogen: N-METHYL-N'-NITRO-N-NITROSOGUANIDINE, 70-25-7, 111 PPM IN DIET FOR 6 MO BEGINNING 3 MO POST CARCINOGEN TREATMENT (STUDY DURATION: 9 MO), Species: FISH, Strain/Sex: RAINBOW TROUT/MALE,FEMALE, Target Tissue: Type of Lesion: STOMACH: TUMOR, Dose [Carcinogen]: 35 PPM IN WATER FOR 30 MIN ONCE, Promoter: NONE USED): 38%, 27%, 29%, not significant
tumour outcome (control, treated, inhibition, significance) (Carcinogen: N-METHYL-N'-NITRO-N-NITROSOGUANIDINE, 70-25-7, 111 PPM IN DIET FOR 6 MO BEGINNING 3 MO POST CARCINOGEN TREATMENT (STUDY DURATION: 9 MO), Species: FISH, Strain/Sex: RAINBOW TROUT/MALE,FEMALE, Target Tissue: Type of Lesion: SWIM BLADDER: TUMOR, Dose [Carcinogen]: 35 PPM IN WATER FOR 30 MIN ONCE, Promoter: NONE USED): 13%, 3%, 77%, p<0.05
tumour outcome (control, treated, inhibition, significance) (Carcinogen: N-METHYL-N'-NITRO-N-NITROSOGUANIDINE, 70-25-7, 222 PPM IN DIET FOR 6 MO BEGINNING 3 MO POST CARCINOGEN TREATMENT (STUDY DURATION: 9 MO), Species: FISH, Strain/Sex: RAINBOW TROUT/MALE,FEMALE, Target Tissue: Type of Lesion: STOMACH: TUMOR, Dose [Carcinogen]: 35 PPM IN WATER FOR 30 MIN ONCE, Promoter: NONE USED): 38%, 31%, 18%, not significant
tumour outcome (control, treated, inhibition, significance) (Carcinogen: N-METHYL-N'-NITRO-N-NITROSOGUANIDINE, 70-25-7, 222 PPM IN DIET FOR 6 MO BEGINNING 3 MO POST CARCINOGEN TREATMENT (STUDY DURATION: 9 MO), Species: FISH, Strain/Sex: RAINBOW TROUT/MALE,FEMALE, Target Tissue: Type of Lesion: SWIM BLADDER: TUMOR, Dose [Carcinogen]: 35 PPM IN WATER FOR 30 MIN ONCE, Promoter: NONE USED): 13%, 3%, 77%, p<0.05
tumour outcome (control, treated, inhibition, significance) (Carcinogen: N-METHYL-N'-NITRO-N-NITROSOGUANIDINE, 70-25-7, 444 PPM IN DIET FOR 6 MO BEGINNING 3 MO POST CARCINOGEN TREATMENT (STUDY DURATION: 9 MO), Species: FISH, Strain/Sex: RAINBOW TROUT/MALE,FEMALE, Target Tissue: Type of Lesion: STOMACH: TUMOR, Dose [Carcinogen]: 35 PPM IN WATER FOR 30 MIN ONCE, Promoter: NONE USED): 38%, 36%, 5%, not significant
tumour outcome (control, treated, inhibition, significance) (Carcinogen: N-METHYL-N'-NITRO-N-NITROSOGUANIDINE, 70-25-7, 444 PPM IN DIET FOR 6 MO BEGINNING 3 MO POST CARCINOGEN TREATMENT (STUDY DURATION: 9 MO), Species: FISH, Strain/Sex: RAINBOW TROUT/MALE,FEMALE, Target Tissue: Type of Lesion: SWIM BLADDER: TUMOR, Dose [Carcinogen]: 35 PPM IN WATER FOR 30 MIN ONCE, Promoter: NONE USED): 13%, 8%, 38%, not significant
tumour outcome (control, treated, inhibition, significance) (Carcinogen: N-METHYL-N'-NITRO-N-NITROSOGUANIDINE, 70-25-7, 888 PPM IN DIET FOR 6 MO BEGINNING 3 MO POST CARCINOGEN TREATMENT (STUDY DURATION: 9 MO), Species: FISH, Strain/Sex: RAINBOW TROUT/MALE,FEMALE, Target Tissue: Type of Lesion: STOMACH: TUMOR, Dose [Carcinogen]: 35 PPM IN WATER FOR 30 MIN ONCE, Promoter: NONE USED): 38%, 26%, 32%, not significant
tumour outcome (control, treated, inhibition, significance) (Carcinogen: N-METHYL-N'-NITRO-N-NITROSOGUANIDINE, 70-25-7, 888 PPM IN DIET FOR 6 MO BEGINNING 3 MO POST CARCINOGEN TREATMENT (STUDY DURATION: 9 MO), Species: FISH, Strain/Sex: RAINBOW TROUT/MALE,FEMALE, Target Tissue: Type of Lesion: SWIM BLADDER: TUMOR, Dose [Carcinogen]: 35 PPM IN WATER FOR 30 MIN ONCE, Promoter: NONE USED): 13%, 6%, 54%, not significant
tumour outcome (control, treated, inhibition, significance) (Carcinogen: N-METHYL-N-NITROSOUREA, 684-93-5, 0.1% IN DIET FOR DURATION OF STUDY BEGINNING 1 WK PRIOR TO CARCINOGEN DOSE (STUDY DURATION: 187 D), Species: RAT, Strain/Sex: SPRAGUE-DAWLEY/FEMALE, Target Tissue: Type of Lesion: MAMMARY GLAND: CARCINOMA, Dose [Carcinogen]: 50 MG/KG ONCE AT 50 D OF AGE, Promoter: NONE USED): 100%, 68%, 32%, p<0.05
tumour outcome (control, treated, inhibition, significance) (Carcinogen: N-METHYL-N-NITROSOUREA, 684-93-5, 0.2% IN DIET FOR 2 WK BEGINNING 1 WK PRIOR TO CARCINOGEN DOSE (STUDY DURATION: 187 D), Species: RAT, Strain/Sex: SPRAGUE-DAWLEY/FEMALE, Target Tissue: Type of Lesion: MAMMARY GLAND: CARCINOMA, Dose [Carcinogen]: 50 MG/KG ONCE AT 50 D OF AGE, Promoter: NONE USED): 100%, 100%, 0%, not significant
tumour outcome (control, treated, inhibition, significance) (Carcinogen: N-METHYL-N-NITROSOUREA, 684-93-5, 0.2% IN DIET FOR DURATION OF STUDY BEGINNING 1 WK POST CARCINOGEN DOSE (STUDY DURATION: 180 D), Species: RAT, Strain/Sex: SPRAGUE-DAWLEY/FEMALE, Target Tissue: Type of Lesion: MAMMARY GLAND: CARCINOMA, Dose [Carcinogen]: 50 MG/KG ONCE AT 50 D OF AGE, Promoter: NONE USED): 100%, 67%, 33%, p<0.05
tumour outcome (control, treated, inhibition, significance) (Carcinogen: N-METHYL-N-NITROSOUREA, 684-93-5, 0.2% IN DIET FOR DURATION OF STUDY BEGINNING 1 WK PRIOR TO CARCINOGEN DOSE (STUDY DURATION: 187 D), Species: RAT, Strain/Sex: SPRAGUE-DAWLEY/FEMALE, Target Tissue: Type of Lesion: MAMMARY GLAND: CARCINOMA, Dose [Carcinogen]: 50 MG/KG ONCE AT 50 D OF AGE, Promoter: NONE USED): 100%, 48%, 52%, p<0.05
